Source: patent US20240307351A1, “AGENT FOR ANTI-AGING OR FOR CELLULAR REJUVENATION” (TOHOKU UNIVERSITY, priority 2022, published 2024)

Tested on: Mouse inner ear cells HEI-OC1
Experiment: RNA-Seq and ChIP-Atlas analysis of HEI-OC1 cells
Format: cell-based
Details: 10 µM
Procedure: Mouse inner ear cells HEI-OC1 were cultured in 10% FBS-containing DMEM medium containing 10 µM of Compound #5 (dissolved in 0.1% DMSO) ([MA5 addition group], n=5).
In addition, mouse inner ear cells HEI-OC1 were cultured in 10% FBS-containing DMEM medium containing […] 0.1% DMSO ([Vehicle group], n=5).
RNA sequencing (RNA-Seq) analysis was performed on the HEI-OC1 cells in [MA5 addition group] and [Vehicle group] to identify genes whose expression levels changed (increased or decreased) in [MA5 addition group] as compared with [Vehicle group]. Using the results of these gene names, integrated analysis with ChIP-Atlas was performed to investigate transcription factors possibly related to these genes. The results of ChIP enrichment analysis (ChEA) are shown in Table 7, and the results of analysis by ENCODE and ChEA consensus TFs from ChIP-X are shown in Table 8.

O=C(CC(C(=O)O)c1c[nH]c2ccccc12)c1ccc(F)cc1F (centres unmarked) [Compound #5, 4-(2,4-difluorophenyl)-2-(1H-indole-3-yl)-4-oxo-butanoic acid]
transcription factors related to genes whose expression increased (ChIP enrichment analysis, ChEA) (Table 7): SUZ^12 and EZH2, which are factors constituting polycomb repressive complex-2 (PRC2), which methylates histones, and SOX2 | transcription factors related to genes whose expression increased (ENCODE and ChEA consensus TFs from ChIP-X) (Table 8): PPARG (peroxisome proliferator-activated receptor γ), which is a longevity-related gene, MYC, which is one of the reprogramming factors necessary for the production of iPS cells, TRIM28
